In patent US10464947B2 (Incyte Corporation, priority 2013, dated 2019):

Test system: KMS.12.BM cells
Assay: KMS.12.BM Cell Viability Assay (Example B1)
Format: cell-based, human
Conditions: Homo sapiens, 72 h, 3 days, Cell Titer-GLO, read-out: KMS cellular IC50
In short: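 KMS.12.BM human myeloma cells, 5000 cells/well in RPMI with 10% FBS, exposed to a compound concentration range for 3 days. Viable cells measured by ATP-based Cell Titer-GLO luminescence after 10 min at room temperature.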

Structure (SMILES) | IC50
Cc1noc(C)c1-c1ccc2nc(N3CCCN(C(=O)OC(C)(C)C)CC3)n3c2c1OC[C@@H]3c1ccccn1 [Example 197, tert-butyl 4-[(4S)-7-(3,5-dimethylisoxazol-4-yl)-4-pyridin-2-yl-4,5-dihydroimidazo[1,5,4-de][1,4]benzoxazin-2-yl]-1,4-diazepane-1-carboxylate] | < 1000 nM
CC(=O)N[C@@H]1CCN(c2nc3ccc(-c4c(C)noc4C)c4c3n2[C@@H](c2ccccn2)CO4)C1 [Example 201A, N-{(3R)-1-[(4S)-7-(3,5-dimethylisoxazol-4-yl)-4-pyridin-2-yl-4,5-dihydroimidazo[1,5,4-de][1,4]benzoxazin-2-yl]pyrrolidin-3-yl}acetamide] | < 1000 nM
CC(=O)N[C@H]1CCN(c2nc3ccc(-c4c(C)noc4C)c4c3n2[C@@H](c2ccccn2)CO4)C1 [Example 201B, N-{(3S)-1-[(4S)-7-(3,5-dimethylisoxazol-4-yl)-4-pyridin-2-yl-4,5-dihydroimidazo[1,5,4-de][1,4]benzoxazin-2-yl]pyrrolidin-3-yl}acetamide] | < 1000 nM
Cc1noc(C)c1-c1ccc2nc(N3CC[C@@H](NC(=O)C(F)(F)F)C3)n3c2c1OC[C@@H]3c1ccccn1 [Example 203, N-{(3R)-1-[(4S)-7-(3,5-dimethylisoxazol-4-yl)-4-pyridin-2-yl-4,5-dihydroimidazo[1,5,4-de][1,4]benzoxazin-2-yl]pyrrolidin-3-yl}-2,2,2-trifluoroacetamide] | < 1000 nM
COCC(=O)N[C@@H]1CCN(c2nc3ccc(-c4c(C)noc4C)c4c3n2[C@@H](c2ccccn2)CO4)C1 [Example 205, N-{(3R)-1-[(4S)-7-(3,5-dimethylisoxazol-4-yl)-4-pyridin-2-yl-4,5-dihydroimidazo[1,5,4-de][1,4]benzoxazin-2-yl]pyrrolidin-3-yl}-2-methoxyacetamide] | < 1000 nM
Cc1noc(C)c1-c1ccc2nc(N3CC[C@@H](NC(=O)C4CC4)C3)n3c2c1OC[C@@H]3c1ccccn1 [Example 206, N-{(3R)-1-[(4S)-7-(3,5-dimethylisoxazol-4-yl)-4-pyridin-2-yl-4,5-dihydroimidazo[1,5,4-de][1,4]benzoxazin-2-yl]pyrrolidin-3-yl}cyclopropanecarboxamide] | < 1000 nM
Cc1noc(C)c1-c1ccc2nc(N3CC[C@@H](NS(C)(=O)=O)C3)n3c2c1OC[C@@H]3c1ccccn1 [Example 207, N-{(3R)-1-[(4S)-7-(3,5-dimethylisoxazol-4-yl)-4-pyridin-2-yl-4,5-dihydroimidazo[1,5,4-de][1,4]benzoxazin-2-yl]pyrrolidin-3-yl}methanesulfonamide] | < 1000 nM
CCC(=O)N[C@@H]1CCN(c2nc3ccc(-c4c(C)noc4C)c4c3n2[C@@H](c2ccccn2)CO4)C1 [Example 208, N-{(3R)-1-[(4S)-7-(3,5-dimethylisoxazol-4-yl)-4-pyridin-2-yl-4,5-dihydroimidazo[1,5,4-de][1,4]benzoxazin-2-yl]pyrrolidin-3-yl}propanamide] | < 1000 nM
Cc1noc(C)c1-c1ccc2nc(N3CC[C@@H](NC(=O)C(C)C)C3)n3c2c1OC[C@@H]3c1ccccn1 [Example 209, N-{(3R)-1-[(4S)-7-(3,5-dimethylisoxazol-4-yl)-4-pyridin-2-yl-4,5-dihydroimidazo[1,5,4-de][1,4]benzoxazin-2-yl]pyrrolidin-3-yl}-2-methylpropanamide] | < 1000 nM
Cc1noc(C)c1-c1ccc2nc(N3CC[C@@H](NC(=O)C4CCC4)C3)n3c2c1OC[C@@H]3c1ccccn1 [Example 210, N-{(3R)-1-[(4S)-7-(3,5-dimethylisoxazol-4-yl)-4-pyridin-2-yl-4,5-dihydroimidazo[1,5,4-de][1,4]benzoxazin-2-yl]pyrrolidin-3-yl}cyclobutanecarboxamide] | < 1000 nM
Cc1noc(C)c1-c1ccc2nc(N3CC[C@@H](NC(=O)CC#N)C3)n3c2c1OC[C@@H]3c1ccccn1 [Example 211, 2-cyano-N-{(3R)-1-[(4S)-7-(3,5-dimethylisoxazol-4-yl)-4-pyridin-2-yl-4,5-dihydroimidazo[1,5,4-de][1,4]benzoxazin-2-yl]pyrrolidin-3-yl}acetamide] | < 1000 nM
Cc1noc(C)c1-c1ccc2nc(N3CC[C@@H](NC(=O)C4CCOCC4)C3)n3c2c1OC[C@@H]3c1ccccn1 [Example 213, N-{(3R)-1-[(4S)-7-(3,5-dimethylisoxazol-4-yl)-4-pyridin-2-yl-4,5-dihydroimidazo[1,5,4-de][1,4]benzoxazin-2-yl]pyrrolidin-3-yl}tetrahydro-2H-pyran-4-carboxamide] | < 1000 nM
CCS(=O)(=O)N[C@@H]1CCN(c2nc3ccc(-c4c(C)noc4C)c4c3n2[C@@H](c2ccccn2)CO4)C1 [Example 214, N-{(3R)-1-[(4S)-7-(3,5-dimethylisoxazol-4-yl)-4-pyridin-2-yl-4,5-dihydroimidazo[1,5,4-de][1,4]benzoxazin-2-yl]pyrrolidin-3-yl}ethanesulfonamide] | < 1000 nM
CCCS(=O)(=O)N[C@@H]1CCN(c2nc3ccc(-c4c(C)noc4C)c4c3n2[C@@H](c2ccccn2)CO4)C1 [Example 215, N-{(3R)-1-[(4S)-7-(3,5-dimethylisoxazol-4-yl)-4-pyridin-2-yl-4,5-dihydroimidazo[1,5,4-de][1,4]benzoxazin-2-yl]pyrrolidin-3-yl}propane-1-sulfonamide] | < 1000 nM
Cc1noc(C)c1-c1ccc2nc(N3CC[C@@H](NS(=O)(=O)C(C)C)C3)n3c2c1OC[C@@H]3c1ccccn1 [Example 217, N-{(3R)-1-[(4S)-7-(3,5-dimethylisoxazol-4-yl)-4-pyridin-2-yl-4,5-dihydroimidazo[1,5,4-de][1,4]benzoxazin-2-yl]pyrrolidin-3-yl}propane-2-sulfonamide] | < 1000 nM
Cc1noc(C)c1-c1ccc2nc(N3CC[C@@H](NS(=O)(=O)C4CC4)C3)n3c2c1OC[C@@H]3c1ccccn1 [Example 218, N-{(3R)-1-[(4S)-7-(3,5-dimethylisoxazol-4-yl)-4-pyridin-2-yl-4,5-dihydroimidazo[1,5,4-de][1,4]benzoxazin-2-yl]pyrrolidin-3-yl}cyclopropanesulfonamide] | < 1000 nM
Cc1noc(C)c1-c1ccc2nc(N3CC[C@@H](N(C)S(C)(=O)=O)C3)n3c2c1OC[C@@H]3c1ccccn1 [Example 220, N-{(3R)-1-[(4S)-7-(3,5-dimethylisoxazol-4-yl)-4-pyridin-2-yl-4,5-dihydroimidazo[1,5,4-de][1,4]benzoxazin-2-yl]pyrrolidin-3-yl}-N-methylmethanesulfonamide] | < 1000 nM
COCC(=O)N(C)[C@@H]1CCN(c2nc3ccc(-c4c(C)noc4C)c4c3n2[C@@H](c2ccccn2)CO4)C1 [Example 221, N-{(3R)-1-[(4S)-7-(3,5-dimethylisoxazol-4-yl)-4-pyridin-2-yl-4,5-dihydroimidazo[1,5,4-de][1,4]benzoxazin-2-yl]pyrrolidin-3-yl}-2-methoxy-N-methylacetamide] | < 1000 nM
CC(=O)N(C)[C@@H]1CCN(c2nc3ccc(-c4c(C)noc4C)c4c3n2[C@@H](c2ccccn2)CO4)C1 [Example 222, N-{(3R)-1-[(4S)-7-(3,5-dimethylisoxazol-4-yl)-4-pyridin-2-yl-4,5-dihydroimidazo[1,5,4-de][1,4]benzoxazin-2-yl]pyrrolidin-3-yl}-N-methylacetamide] | < 1000 nM
